In PubChem BioAssay (NCI) one finds TGI data, which are given here for 29 compounds.

Each structure is given as a SMILES string.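 Values below derive from 48-hour exposures of cells grown in 96-well plates, with endpoints linearly interpolated between the two concentrations bracketing the appropriate inhibition level. TGI marks complete inhibition of growth.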

One test concerns SF-268 CNS. Kind of test: NCI-60 cell line screen, 48 h.
In turn, `Cc1ccc([C@H]2CC(=O)C[C@H](c3ccc(C)cc3)C23C(=O)c2ccccc2C3=O)cc1` displayed a TGI of over 100 µM.

Take `CN(NC(=O)c1cccs1)C1=NCCCN1`: the TGI was over 100 µM.

`Cc1ccn2c(=O)cc(-c3ccccc3)nc2c1` showed a TGI of over 100 µM.

Regarding `O=c1[nH]nc(Cc2ccc([N+](=O)[O-])cc2)n1CCO`, the TGI was over 100 µM.

In the case of `CCn1nc2c3c(ncn3C(C)(C)O2)c1=O`, the TGI was over 100 µM.

With `CCCCCC(=O)NC(=S)Nc1nn[nH]n1`, the TGI was over 100 µM.

The compound `CCC(C#N)NC(=O)NC(C#N)CC` (configuration not stated) returned a TGI of over 100 µM.

Turning to `C[C@H](N)C(=O)Nc1ccc(-c2nc3ccccc3s2)cc1`, the TGI is over 100 µM.

For `Cc1ccc2c(c1)[nH]c1cc(C(F)(F)F)ccc1[p+]2=O` (configuration not stated), the TGI is over 100 µM.

Consider `NCCN=C(Nc1ccccc1)Nc1ccccc1`, for which the TGI is over 100 µM.

On to `COC(=O)C1=C(C(=O)OC)SC2(S1)C1=C(CCCC1)SC(C(=O)OC)=C2C(=O)OC`, for which the TGI turned out to be 22.3 µM.

`C/C=C/C(O)P1(=O)N(Cc2ccccc2)[C@@H]2CCCC[C@H]2N1Cc1ccccc1` (some centres not stated) displayed a TGI of over 25 µM.

In the next test the test system is MDA-N. Kind of test: NCI-60 cell line screen, 48 h.
Take `CCC1(C(=O)OC(C)(C)C)OC12C(C)CCCC2C` (configuration not stated): the TGI was over 100 µM.

Consider `Cc1ccc(-c2cc(N)n(-c3nc4c(c(=O)n(C)c(=O)n4C)n3C)n2)cc1`, for which the TGI is over 100 µM.

`CN(C)c1ccc(C2SCC(=O)N2NS(=O)(=O)c2cccc(C(=O)O)c2)cc1` (configuration not stated): the TGI was over 100 µM.

For `CC1CCOc2ccc(cc2)C=Nc2ccc(cc2)CCc2ccc(cc2)N=Cc2ccc(cc2)OCC1` (configuration not stated), the TGI was over 100 µM.

With `COC(=O)[C@H](Cc1ccccc1)NC(=O)[C@H](Cc1ccccc1)NC(=O)[C@@H]1CCCN1C(=O)N[C@H]1C2C=CC(C2)C1C(=O)N1CCC[C@H]1C(=O)N[C@@H](C)C(=O)N[C@H](C(=O)OC)C(C)C` (some centres not stated), the TGI was over 100 µM.

In the case of `O=C1c2ccccc2-c2nc(-c3cccc([N+](=O)[O-])c3)nnc21`, the TGI worked out at 5.49 µM.

`CC(=O)N1N=C(c2ccc3ccccc3c2O)CC1C(=O)c1ccco1` (configuration not stated) yielded a TGI of over 100 µM.

Turning to `N#Cc1nc(-c2cccs2)oc1N`, the TGI was over 100 µM.

`NC(=O)NNC(=O)c1nc[nH]c1[N+](=O)[O-]` came in with a TGI of over 100 µM.

For the compound `O=c1c2c([N+](=O)[O-])cccc2nc2[nH]c3ccccc3n12`, the TGI was over 75 µM.

`Cc1cc(C)cc(Nc2cc(=O)[nH]c(=O)[nH]2)c1` registered a TGI of over 100 µM.

`O=c1[nH]/c(=C/c2ccc(OCc3ccccc3)cn2)c(=O)[nH]/c1=C/c1ccc(O)cc1` had a TGI of 0.591 µM.

As to `N#C/C(=C\n1ccc(=O)[nH]c1=S)C(N)=O`, the TGI is over 100 µM.

In the case of `O=C(NCCCCCCNCc1cccc2ccccc12)Nc1cccc2ccccc12`, the TGI was over 100 µM.

In turn, `Cc1ccc([C@H]2CC(=O)C[C@H](c3ccc(C)cc3)C23C(=O)c2ccccc2C3=O)cc1` displayed a TGI of over 100 µM.

On to `NCCSc1nc2ccccc2c(=O)n1-c1ccccc1`, for which the TGI was over 100 µM.

For the compound `COC(=O)C1=CC(=O)OC1(OO)c1ccccc1` (configuration not stated), the TGI was over 100 µM.

For `Nc1ccc(N=Nc2ccccc2)cc1`, the TGI was over 100 µM.

Regarding `CN(NC(=O)c1cccs1)C1=NCCCN1`, the TGI was over 100 µM.

In turn, `Cc1ccn2c(=O)cc(-c3ccccc3)nc2c1` came in with a TGI of over 100 µM.

As for `O=c1[nH]nc(Cc2ccc([N+](=O)[O-])cc2)n1CCO`, the TGI is over 100 µM.

`CCn1nc2c3c(ncn3C(C)(C)O2)c1=O` registered a TGI of over 100 µM.

Consider `CCCCCC(=O)NC(=S)Nc1nn[nH]n1`, for which the TGI was over 100 µM.

In turn, `CCC(C#N)NC(=O)NC(C#N)CC` (configuration not stated) returned a TGI of over 100 µM.

On to `C[C@H](N)C(=O)Nc1ccc(-c2nc3ccccc3s2)cc1`, for which the TGI is 38.4 µM.

`Cc1ccc2c(c1)[nH]c1cc(C(F)(F)F)ccc1[p+]2=O` (configuration not stated) had a TGI of over 100 µM.

On to `NCCN=C(Nc1ccccc1)Nc1ccccc1`, for which the TGI is over 100 µM.

`COC(=O)C1=C(C(=O)OC)SC2(S1)C1=C(CCCC1)SC(C(=O)OC)=C2C(=O)OC` registered a TGI of 15.2 µM.

As for `C/C=C/C(O)P1(=O)N(Cc2ccccc2)[C@@H]2CCCC[C@H]2N1Cc1ccccc1` (some centres not stated), the TGI is over 25 µM.

The subject of the next test is CAKI-1 renal. Put plainly: NCI-60 cell line screen, 48 h.
In turn, `CCC1(C(=O)OC(C)(C)C)OC12C(C)CCCC2C` (configuration not stated) came in with a TGI of over 100 µM.

In turn, `Cc1ccc(-c2cc(N)n(-c3nc4c(c(=O)n(C)c(=O)n4C)n3C)n2)cc1` gave a TGI of over 100 µM.

Consider `CN(C)c1ccc(C2SCC(=O)N2NS(=O)(=O)c2cccc(C(=O)O)c2)cc1` (configuration not stated), for which the TGI is over 100 µM.

The compound `CC1CCOc2ccc(cc2)C=Nc2ccc(cc2)CCc2ccc(cc2)N=Cc2ccc(cc2)OCC1` (configuration not stated) displayed a TGI of over 100 µM.

Compound `COC(=O)[C@H](Cc1ccccc1)NC(=O)[C@H](Cc1ccccc1)NC(=O)[C@@H]1CCCN1C(=O)N[C@H]1C2C=CC(C2)C1C(=O)N1CCC[C@H]1C(=O)N[C@@H](C)C(=O)N[C@H](C(=O)OC)C(C)C` (some centres not stated) registered a TGI of over 100 µM.

Take `O=C1c2ccccc2-c2nc(-c3cccc([N+](=O)[O-])c3)nnc21`: the TGI was determined as 12.6 µM.

The compound `CC(=O)N1N=C(c2ccc3ccccc3c2O)CC1C(=O)c1ccco1` (configuration not stated) registered a TGI of over 100 µM.

`N#Cc1nc(-c2cccs2)oc1N` showed a TGI of 53.1 µM.

`NC(=O)NNC(=O)c1nc[nH]c1[N+](=O)[O-]` returned a TGI of over 100 µM.

In the case of `O=c1c2c([N+](=O)[O-])cccc2nc2[nH]c3ccccc3n12`, the TGI was determined as 45 µM.

`O=c1[nH]/c(=C/c2ccc(OCc3ccccc3)cn2)c(=O)[nH]/c1=C/c1ccc(O)cc1` had a TGI of 3.08 µM.

In turn, `N#C/C(=C\n1ccc(=O)[nH]c1=S)C(N)=O` returned a TGI of over 100 µM.

Take `O=C(NCCCCCCNCc1cccc2ccccc12)Nc1cccc2ccccc12`: the TGI is over 100 µM.

Consider `Cc1ccc([C@H]2CC(=O)C[C@H](c3ccc(C)cc3)C23C(=O)c2ccccc2C3=O)cc1`, for which the TGI is over 100 µM.

Take `NCCSc1nc2ccccc2c(=O)n1-c1ccccc1`: the TGI is over 100 µM.

`COC(=O)C1=CC(=O)OC1(OO)c1ccccc1` (configuration not stated) returned a TGI of over 100 µM.

Turning to `Nc1ccc(N=Nc2ccccc2)cc1`, the TGI is over 100 µM.

Consider `O=c1[nH]nc(Cc2ccc([N+](=O)[O-])cc2)n1CCO`, for which the TGI was over 100 µM.

The compound `CCn1nc2c3c(ncn3C(C)(C)O2)c1=O` registered a TGI of over 100 µM.

Compound `CCCCCC(=O)NC(=S)Nc1nn[nH]n1` showed a TGI of over 100 µM.

The compound `CCC(C#N)NC(=O)NC(C#N)CC` (configuration not stated) gave a TGI of over 100 µM.

In turn, `C[C@H](N)C(=O)Nc1ccc(-c2nc3ccccc3s2)cc1` came in with a TGI of 36.3 µM.

On to `Cc1ccc2c(c1)[nH]c1cc(C(F)(F)F)ccc1[p+]2=O` (configuration not stated), for which the TGI was over 100 µM.

The compound `NCCN=C(Nc1ccccc1)Nc1ccccc1` returned a TGI of over 100 µM.

`COC(=O)C1=C(C(=O)OC)SC2(S1)C1=C(CCCC1)SC(C(=O)OC)=C2C(=O)OC` displayed a TGI of 13.5 µM.

In the case of `C/C=C/C(O)P1(=O)N(Cc2ccccc2)[C@@H]2CCCC[C@H]2N1Cc1ccccc1` (some centres not stated), the TGI is over 25 µM.
